Assay results: patent US5252571A, “1,4-benzothiazine-2-acetic acid derivatives” (Sapporo Breweries Limited, priority 1990, dated 1993)
Values belong to the compound of their own block, whether it stands above or below them.

What was measured:
aldose reductase = target: T1, aldose reductase (Sus scrofa, UniProt P80276); assay: Aldose reductase inhibitory activity (porcine crystalline lens enzyme); type: biochemical; conditions: d1-glyceraldehyde 3 mM, pH 6.2, 25° C., 2 minutes
T1 construct: porcine crystalline lens stored at -80° C. was homogenized in distilled water; from tissue; host or cells: porcine crystalline lens
Procedure: Aldose reductase enzyme standard was prepared from porcine crystalline lens by the method of Hayman et al. (cf., S. Hayman et al., Journal of Biological Chemistry, 240, 877-882, 1965). That is, porcine crystalline lens stored at -80° C. was homogenized in distilled water followed by centrifugation at 10,000 XG for 15 minutes. The supernatant was dissolved to make 40% ammonium sulfate solution. The supernatant centrifuged at 10,000 XG for further 10 minutes was dialyzed to 0.05 M sodium chloride solution overnight. The thus obtained dialysate was used as the enzyme standard.
The activity of aldose reductase was determined by the method of Hayman et al. supra. That is, 25 μl of the enzyme solution described above and […] of a drug solution in 1% DMSO having various concentrations were added to 200 μl of 40 mM phosphate buffer (pH 6.2) prepared to contain […] lithium sulfate and 0.1 MM NADPH (reduced nicotinamide adenine dinucleotide phosphate) in final concentrations and Containing 3 mM d1-glyceraldehyde as substrate, respectively. Thereafter, the mixture was reacted at 25° C. for 2 minutes and change in absorbance at 340 nm was determined using COBAS FARA II (Roche Co.).

ICR strain mice = assay: Safety test, single oral administration in mice with 14 days observation; type: in vivo; conditions: 300 mg/kg oral, male ICR mice
Procedure: Next, safety of the compounds of the present invention was verified by the following test.
After normal ICR strain mice (male, 7 weeks age, 5 mice being into one group) was fasted for 18 hours, each compound (300 mg/kg) of Examples 1311, 132, 134, 156, 173, 179, 183 and 188 was orally administered in the form of 0.5% carboxymethylcellulose suspension. In the control group, 0.5% carboxymethylcellulose solution alone was orally administered. […] During the observation, mice were free access to feed and water.

[1] = system: tissue sorbitol in streptozotocin-induced diabetic rats; assay: Inhibitory activity of accumulation of tissue sorbitol in streptozotocin-induced diabetic rats; type: in vivo, Sprague-Dawley rats; conditions: 30 mg/kg oral 4, 8 and 24 hours after streptozotocin, control = 100%, Tukey's test *p < 0.05, **p < 0.01; for Accumulation of Tissue Sorbitol (%), Nerve: sciatic nerve
Procedure: 4) Inhibitory activity of accumulation of tissue sorbitol in streptozatocini-induced diabetic rats.
Sprague-Dawley rats (male,6 weeks of age, one group composed of 5 to 6 rats), fasted overnight, were made diabetic by single intravenous injection of 60 mg/kg body weight of streptozotocin (SIGMA Co. ) , which had been freshly dissolved in normal saline solution.
The compound was orally administered in the form of 0.5% carboxymethylcellulose suspension in a dose of 30 mg/kg 4, 8 and 24 hours after the injection of streptozotocin. During the test, rats were free access to feed and water. Three hours after the final administration, the sorbitol contens in tissues (red blood cell, sciatic nerve, lens) Were determined by the enzyme method of Bergmeyer et al. [cf., H. Y. Bergmeyer et al., Methods of Enzymatic Analysis, 3, 1323-1330, 1974], using SDH (sorbitol dehydrogenase) and AND (β-nicotinamide adenine dinucleotide). The results are shown by percentage (%) when the value obtained with control group administered with 0.5% carboxymethylcellulose solution as a solvent instead of the compound was made 100%.

SMILES: O=C(O)CC1Sc2ccccc2N(Cc2nc3cc(F)cc(F)c3s2)C1=O (centres unmarked) [Example 173, 2-[4-(5,7-Difluorobenzothiazol-2-yl)methyl-3,4-dihydro-3-oxo-2H-1,4-benzothiazin-2-yl]acetic acid]
IC50 (aldose reductase): 14 nM | body weight (ICR strain mice): progressed as in the control group | mice dead (ICR strain mice): none

SMILES: O=C(O)CC1Sc2ccccc2N(Cc2nc3cc(F)ccc3s2)C1=O (centres unmarked) [Example 131, 2-[4-(5-fluorobenzothiazol-2-yl]methyl-3,4-dihydro-3-oxo-2H-1,4-benzothiazin-2-yl]acetic acid]
IC50 (aldose reductase): 15 nM | body weight (ICR strain mice): progressed as in the control group | mice dead (ICR strain mice): none

SMILES: Cc1ccc2c(c1)N(Cc1nc3c(Cl)c(Cl)ccc3s1)C(=O)C(CC(=O)O)S2 (centres unmarked) [Example 156, 2-[4-(4,5-Dichlorobenzothiazol-2-yl)methyl-6-methyl-3,4-dihydro-3-oxo-2H-1,4-benzothiazin-2-yl]acetic acid]
body weight (ICR strain mice): progressed as in the control group | mice dead (ICR strain mice): none

SMILES: O=C(O)CC1Sc2ccccc2N(Cc2nc3c(Cl)c(Cl)ccc3s2)C1=O (centres unmarked) [Example 154, 2-[4-(4,5-Dichlorobenzothiazol-2-yl)methyl-3,4-dihydro-3-oxo-2H-1,4-benzothiazin-2-yl]acetic acid]
Accumulation of Tissue Sorbitol (%), Lens [1]: 59.0% | Accumulation of Tissue Sorbitol (%), Red Blood Cell [1]: 3.3% | Accumulation of Tissue Sorbitol (%), Nerve [1]: 18.6%

SMILES: O=C(O)CC1Sc2ccc(F)cc2N(Cc2nc3c(F)c(F)ccc3s2)C1=O (centres unmarked) [Example 209, 2-[4-(4,5-Difluorobenzothiazol-2-yl)methyl-6-fluoro-3,4-dihydro-3-oxo-2H-1,4-benzothiazin-2-yl]acetic acid]
Accumulation of Tissue Sorbitol (%), Lens [1]: 25.2% | Accumulation of Tissue Sorbitol (%), Red Blood Cell [1]: 24.7% | Accumulation of Tissue Sorbitol (%), Nerve [1]: 3.1%

SMILES: Cc1ccc2c(c1)N(Cc1nc3cc(F)cc(F)c3s1)C(=O)C(CC(=O)O)S2 (centres unmarked) [Example 179, 2-[4-(5,7-Difluorobenzothiazol-2-yl)methyl-6-methyl-3,4-dihydro-3-oxo-2H-1,4-benzothiazin-2-yl]acetic acid]
body weight (ICR strain mice): progressed as in the control group | mice dead (ICR strain mice): none

SMILES: Cc1cc(C)c2c(c1)N(Cc1nc3cc(F)ccc3s1)C(=O)C(CC(=O)O)S2 (centres unmarked) [Example 134, 2-[6,8-Dimethyl-4-(5-fluorobenzothiazol-2-yl)methyl-3,4-dihydro-3-oxo-2H-1,4-benzothiazin-2-yl]acetic acid]
body weight (ICR strain mice): progressed as in the control group | mice dead (ICR strain mice): none

SMILES: O=C(O)CC1Sc2c(F)cccc2N(Cc2nc3c(F)c(F)cc(F)c3s2)C1=O (centres unmarked) [Example 208, 2-[4-(4,5,7-Trifluorobenzothiazol-2-yl)methyl-8-fluoro-3,4-dihydro-3-oxo-2H-1,4-benzothiazin-2-yl]acetic acid]
Accumulation of Tissue Sorbitol (%), Lens [1]: 31.5% | Accumulation of Tissue Sorbitol (%), Red Blood Cell [1]: 22.9% | Accumulation of Tissue Sorbitol (%), Nerve [1]: 0.0%

SMILES: O=C(O)CC1Sc2ccccc2N(Cc2nc3c(F)ccc(F)c3s2)C1=O (centres unmarked) [Example 158, 2-[4-(4,7-Difluorobenzothiazol-2-yl)methyl-3,4-dihydro-3-oxo-2H-1,4-benzothiazin-2-yl]acetic acid]
Accumulation of Tissue Sorbitol (%), Lens [1]: 58.4% | Accumulation of Tissue Sorbitol (%), Red Blood Cell [1]: 39.2% | Accumulation of Tissue Sorbitol (%), Nerve [1]: 33.1%

SMILES: Cc1ccc2c(c1)N(Cc1nc3cc(F)ccc3s1)C(=O)C(CC(=O)O)S2 (centres unmarked) [Example 132, 2-[4-(5-Fluorobenzothiazol-2-yl)methyl-6-methyl-3,4-dihydro-3-oxo-2H -1,4-benzothiazin-2-yl]acetic acid]
body weight (ICR strain mice): progressed as in the control group | mice dead (ICR strain mice): none

Now from value to compound, other results behind:

IC50 (aldose reductase): 16 nM
SMILES: O=C(O)CC1Sc2cccc(F)c2N(Cc2nc3cc(F)ccc3s2)C1=O (centres unmarked) [Example 177, 2-[5-Fluoro-4-(5-fluorobenzothiazol-2-yl)methyl-3,4-dihydro-3-oxo-2H-1,4-benzothiazin-2-yl]acetic acid]

IC50 (aldose reductase): 6.8 nM
SMILES: COc1ccc2c(c1)N(Cc1nc3c(Cl)c(Cl)ccc3s1)C(=O)C(CC(=O)O)S2 (centres unmarked) [Example 206, 2-[4-(4,5-Dichlorobenzothiazol-2-yl)methyl-6-methoxy-3,4-dihydro-3-oxo-2H-1,4-benzothiazin-2-yl]acetic acid]

IC50 (aldose reductase): 9.8 nM
SMILES: O=C(O)CC1Sc2cc(OC(F)(F)F)ccc2N(Cc2nc3cc(F)cc(F)c3s2)C1=O (centres unmarked) [Example 187, 2-[4-(5,7-Difluorobenzothiazol-2-yl)methyl-7-trifluoromethoxy-3,4-dihydro-3-oxo-2H-1,4-benzothiazin-2-yl]acetic acid]

IC50 (aldose reductase): 15 nM
SMILES: CCOc1ccc2c(c1)SC(CC(=O)O)C(=O)N2Cc1nc2cc(F)ccc2s1 (centres unmarked) [Example 133, 2-[7-Ethoxy-4-(5-fluorobenzothiazol-2-yl)methyl-3,4-dihydro-3-oxo-2H-1,4-benzothiazin-2-yl]acetic acid]

IC50 (aldose reductase): 8.7 nM
SMILES: O=C(O)CC1Sc2cc(Cl)ccc2N(Cc2nc3c(F)c(F)cc(F)c3s2)C1=O (centres unmarked) [Example 202, 2-[4-(4,5,7-Trifluorobenzothiazol-2-yl)methyl-7-chloro-3,4-dihydro-3-oxo-2H-1,4-benzothiazin-2-yl]acetic acid]

IC50 (aldose reductase): 14 nM
SMILES: O=C(O)CC1Sc2ccccc2N(Cc2nc3ccc(Cl)c(Cl)c3s2)C1=O (centres unmarked) [Example 160, 2-[4-(6,7-Dichlorobenzothiazol-2-.yl)methyl-3,4-dihydro-3-oxo-2H-1,4-benzothiazin-2-yl]acetic acid]

IC50 (aldose reductase): 12 nM
SMILES: O=C(O)CC1Sc2cc(F)ccc2N(Cc2nc3cc(F)cc(F)c3s2)C1=O (centres unmarked) [Example 182, 2-[4-(5,7-Difluorobenzothiazol-2-yl)methyl-7-fluoro-3,4-dihydro-3-oxo-2H-1,4-benzothiazin-2-yl]acetic acid]

IC50 (aldose reductase): 14 nM
SMILES: O=C(O)CC1Sc2ccccc2N(Cc2nc3ccc(F)c(F)c3s2)C1=O (centres unmarked) [Example 155, 2-[4-(6,7-Difluorobenzothiazol-2-yl)methyl-3,4-dihydro-3-oxo-2H-1,4-benzothiazin-2-yl]acetic acid]
Accumulation of Tissue Sorbitol (%), Lens [1]: 36.8% | Accumulation of Tissue Sorbitol (%), Red Blood Cell [1]: 0.0% | Accumulation of Tissue Sorbitol (%), Nerve [1]: 7.0%

IC50 (aldose reductase): 14 nM
SMILES: Cc1ccc2c(c1)N(Cc1nc3c(F)cccc3s1)C(=O)C(CC(=O)O)S2 (centres unmarked) [Example 176, 2-[4-(4-Fluorobenzothiazol-2-yl)methyl-6-methyl-3,4-dihydro-3-oxo-2H-1,4-benzothiazin-2-yl]acetic acid]

IC50 (aldose reductase): 9.1 nM
SMILES: O=C(O)CC1Sc2ccccc2N(Cc2nc3c(Cl)c(Cl)cc(Cl)c3s2)C1=O (centres unmarked) [Example 166, 2-[4-(4,5,7-Trichlorobenzothiazol-2-yl)methyl-3,4-dihydro-3-oxo-2H-1,4-benzothiazin-2-yl]acetic acid]

IC50 (aldose reductase): 7.7 nM
SMILES: Cc1ccc2c(c1)SC(CC(=O)O)C(=O)N2Cc1nc2ccc(F)c(F)c2s1 (centres unmarked) [Example 199, 2-[4-(6,7-Difluorobenzothiazol-2-yl)methyl-7-methyl-3,4-dihydro-3-oxo-2H-1,4-benzothiazin-2-yl]acetic acid]

IC50 (aldose reductase): 14 nM
SMILES: Cc1ccc2c(c1)N(Cc1nc3cc(Cl)ccc3s1)C(=O)C(CC(=O)O)S2 (centres unmarked) [Example 139]
